Results on one compound are retold here after PMC8673480 (Journal of medicinal chemistry, 2021).

For the test, the target named is SARS-CoV-2 3CLpro (Severe acute respiratory syndrome coronavirus 2, UniProt P0DTD1). Description: cell-based.

Usually EC50 stands for the concentration needed to bring the measured effect to its halfway point. The compound `CCCC1CCC(COC(=O)NC(CC(C)C)C(=O)NC(C=O)CC2CCNC2=O)CC1` [Compound 8b, ((1r,4R)-4-Propylcyclohexyl) methyl ((2S)-4-methyl-1-oxo-1-(((2S)-1-oxo-3-(2-oxopyrrolidin-3-yl)propan-2-yl)amino)pentan-2-yl) carbamate] registered an EC50 of 1030 ± 490 nM.
